Assay results published in patent publication EP0904079B1, “ANTIDIABETIC AGENTS” (MERCK & CO., INC., priority 1996, dated 1997).

Biological target: T1, Human PPARδ (Homo sapiens, UniProt Q03181)
T1 construct: The full length human cDNA for PPARγ2 and PPARδ were subcloned into the PGEX-2T and PGEX-KT, respectively, expression vector; made in house; host or cells: E. coli
T1 sequence (Q03181 1-441): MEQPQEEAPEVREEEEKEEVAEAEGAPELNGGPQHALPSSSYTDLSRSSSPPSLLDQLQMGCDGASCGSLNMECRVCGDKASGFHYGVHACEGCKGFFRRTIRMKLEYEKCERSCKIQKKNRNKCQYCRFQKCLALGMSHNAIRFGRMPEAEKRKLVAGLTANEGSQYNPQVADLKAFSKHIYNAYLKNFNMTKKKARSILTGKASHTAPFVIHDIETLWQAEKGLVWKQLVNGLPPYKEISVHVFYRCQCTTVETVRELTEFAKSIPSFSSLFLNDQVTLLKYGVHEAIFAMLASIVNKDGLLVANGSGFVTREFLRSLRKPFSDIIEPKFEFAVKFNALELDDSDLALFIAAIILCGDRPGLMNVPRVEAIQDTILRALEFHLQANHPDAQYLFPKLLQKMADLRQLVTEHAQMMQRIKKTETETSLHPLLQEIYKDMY
Experiment: [3H2]Example 11 displacement assay (PPAR receptor binding assay)
Experimental: Human PPARγ2 and PPARδ, independently, were prepared as gst-fusion proteins in E. coli. The full length human cDNA for PPARγ2 and PPARδ were subcloned into the PGEX-2T and PGEX-KT, respectively, expression vector (Pharmacia). E. coli containing the plasmid were grown, induced, and then harvested by centrifugation. The resuspended pellet was broken in a French press and debris was removed by centrifugation at 12,000Xg. Receptors were purified from the supernatant by affinity chromatography on glutathione sepharose. After application to the column, and 1 wash, receptor was eluted with glutathione. Glycerol was added to stabilize the receptor and aliquots were frozen at -80 °C for later use.
Assays were incubated for ∼ 16 h at 4 °C in a final volume of 300 µl. Unbound ligand was removed by addition of 200 µl dextran/gelatin-coated charcoal, on ice, for ∼10 minutes. After centrifugation at 3000 rpm for 10 min at 4 °C, 200 µl of the supernatant fraction was counted in a liquid scintillation counter.

## CCCc1c(OCCCSc2ccc(CC(=O)O)cc2Cl)ccc2oc3ccccc3c12 [Example 11, 3-Chloro-4-(1-propyl-dibenzofuranyl-2-oxy-propylthio)-phenylacetic acid]
  Kd: 1 nM
